Assay [1] deals with IRE1a. The experiment in a line: IRE1a Endoribonuclease Nanoluciferase Assay (XBP1 luciferase reporter in 293T cells). Type of assay: cell-based, human. To be noted: Homo sapiens, HEK-293T, ER stressor, tested as Formic Acid Salt (37: HCl Salt). The essentials:
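293T cells transiently transfected with a PGK-Luc2-P2A-XBP1u-Nanoluciferase-Pest reporter, replated after 6 h, then treated next day with ER stressors ± inhibitors. After lysis, firefly luminescence then nanoluciferase luminescence read sequentially (1000 ms integration each).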
(In general: Reporter assays use an easily measured gene product as a stand-in for the process of interest.)

Another assay relates to 293T cells. The assay can be described thus: Growth assay (cytotoxicity). Type of assay: cell-based, human. To be noted: Homo sapiens, HEK-293T, Formic Acid Salt (37: HCl Salt). The procedure:
A growth assay was performed to evaluate the compounds disclosed herein for cytotoxicity. Briefly, 5,000,000 293T cells were resuspended in 18 mL of cDMEM for a final concentration of […]. […] In a separate 96 well dilution plate, 199 uL cDMEM and 1 uL of DMSO or any one of the compounds disclosed herein (shown as Test Compound 1, 2, 3, 4, 5, or 6 below) were added to wells A4, A8, C4, C8, E4, E8, G4, and G8, 133.3 uL cDMEM was added to wells 1, 2, 3, 5, 6, and 7 in rows A, C, E and G of the dilution plate. Compounds were serially diluted leftwards in threefold dilutions (66.7 uL into 133.3 uL cDMEM). 20 uL of each dilution was transferred in duplicate (duplicates in vertical paired wells) to the cells plated in the 96-well plate shown in Table 5, to the total concentrations shown below. 200 uL cDMEM was addled to media wells (wells G5-H8). The plate was then placed in a humidified chamber for a […], and then photographed (media was more yellow in wells with potent cell growth). Absorbance was then measured at ˜[…] (lower for more acidic media) and ˜450 nM (higher for more acidic media).

The next assay deals with T1, hERG channel (Homo sapiens, UniProt Q12809).
T1 construct: expressed in transfected cells
The experiment in a line: hERG potassium ion channel automated planar clamp (QPatch) in stable CHO cell line. In kind it is cell-based. To be noted: Formic Acid Salt (37: HCl Salt), read-out: hERG channel blockade Mean IC50. The procedure:
Blockade of the cardiac ion channel coded by the hERG gene can lead to cardiac arrhythmia. […] To determine the viability of the compounds disclosed herein as pharmacological agents that would not affect the hERG channel blockade, a standard automated planar clamp method was employed to determine the IC50 for various test compounds on their inhibition of the channel. An electrophysiological assay was prepared to measure the electric current passing through the hERG channel expressed in a stable CHO cell line by applying the planar clamp method. This assay was performed using the automated QPatch platform (Sophion, Denmark) which allows fast and accurate electrophysiological characterization of the hERG ion channel and the determination of IC50 values for the test compounds, as shown in Table 9.
Background: Block of hERG is tested as a sign of cardiac risk.

For assay [2], the target named is T2, IRE1a (Homo sapiens, UniProt O75460).
T2 construct: purchased SignalChem
The experiment in a line: In vitro FRET assay (IRE1a cleavage of XBP1 RNA probe). The note with it: 2 nM SignalChem IRE1a, tested as Formic Acid Salt (37: HCl Salt). Type of assay: biochemical. The essentials:
Human

T2 sequence (O75460 19-977): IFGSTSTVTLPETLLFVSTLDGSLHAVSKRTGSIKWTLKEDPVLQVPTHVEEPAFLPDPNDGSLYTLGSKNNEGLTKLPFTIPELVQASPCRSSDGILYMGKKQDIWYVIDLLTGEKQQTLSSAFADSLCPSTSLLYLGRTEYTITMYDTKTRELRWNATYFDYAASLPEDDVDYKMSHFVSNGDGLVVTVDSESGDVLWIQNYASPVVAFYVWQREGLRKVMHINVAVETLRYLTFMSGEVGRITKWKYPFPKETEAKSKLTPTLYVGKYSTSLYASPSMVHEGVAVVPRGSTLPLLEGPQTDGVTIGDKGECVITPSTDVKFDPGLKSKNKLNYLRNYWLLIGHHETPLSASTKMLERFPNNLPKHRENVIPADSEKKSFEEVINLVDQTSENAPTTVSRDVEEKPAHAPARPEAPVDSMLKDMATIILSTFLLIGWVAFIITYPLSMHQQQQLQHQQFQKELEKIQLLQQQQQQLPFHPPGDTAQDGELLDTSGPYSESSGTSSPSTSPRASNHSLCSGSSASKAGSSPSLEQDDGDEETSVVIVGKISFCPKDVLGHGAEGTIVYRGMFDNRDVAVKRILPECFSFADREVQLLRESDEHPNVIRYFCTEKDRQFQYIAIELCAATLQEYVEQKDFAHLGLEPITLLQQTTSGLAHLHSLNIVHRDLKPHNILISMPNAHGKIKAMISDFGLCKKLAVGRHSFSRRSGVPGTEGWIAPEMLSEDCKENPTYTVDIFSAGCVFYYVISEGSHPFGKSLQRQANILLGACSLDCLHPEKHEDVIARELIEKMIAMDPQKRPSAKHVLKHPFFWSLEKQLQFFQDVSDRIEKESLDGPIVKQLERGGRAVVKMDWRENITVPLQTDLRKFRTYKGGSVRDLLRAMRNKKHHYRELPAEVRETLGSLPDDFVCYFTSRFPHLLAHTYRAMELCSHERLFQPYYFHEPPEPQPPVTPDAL
T1 sequence (Q12809 whole entry): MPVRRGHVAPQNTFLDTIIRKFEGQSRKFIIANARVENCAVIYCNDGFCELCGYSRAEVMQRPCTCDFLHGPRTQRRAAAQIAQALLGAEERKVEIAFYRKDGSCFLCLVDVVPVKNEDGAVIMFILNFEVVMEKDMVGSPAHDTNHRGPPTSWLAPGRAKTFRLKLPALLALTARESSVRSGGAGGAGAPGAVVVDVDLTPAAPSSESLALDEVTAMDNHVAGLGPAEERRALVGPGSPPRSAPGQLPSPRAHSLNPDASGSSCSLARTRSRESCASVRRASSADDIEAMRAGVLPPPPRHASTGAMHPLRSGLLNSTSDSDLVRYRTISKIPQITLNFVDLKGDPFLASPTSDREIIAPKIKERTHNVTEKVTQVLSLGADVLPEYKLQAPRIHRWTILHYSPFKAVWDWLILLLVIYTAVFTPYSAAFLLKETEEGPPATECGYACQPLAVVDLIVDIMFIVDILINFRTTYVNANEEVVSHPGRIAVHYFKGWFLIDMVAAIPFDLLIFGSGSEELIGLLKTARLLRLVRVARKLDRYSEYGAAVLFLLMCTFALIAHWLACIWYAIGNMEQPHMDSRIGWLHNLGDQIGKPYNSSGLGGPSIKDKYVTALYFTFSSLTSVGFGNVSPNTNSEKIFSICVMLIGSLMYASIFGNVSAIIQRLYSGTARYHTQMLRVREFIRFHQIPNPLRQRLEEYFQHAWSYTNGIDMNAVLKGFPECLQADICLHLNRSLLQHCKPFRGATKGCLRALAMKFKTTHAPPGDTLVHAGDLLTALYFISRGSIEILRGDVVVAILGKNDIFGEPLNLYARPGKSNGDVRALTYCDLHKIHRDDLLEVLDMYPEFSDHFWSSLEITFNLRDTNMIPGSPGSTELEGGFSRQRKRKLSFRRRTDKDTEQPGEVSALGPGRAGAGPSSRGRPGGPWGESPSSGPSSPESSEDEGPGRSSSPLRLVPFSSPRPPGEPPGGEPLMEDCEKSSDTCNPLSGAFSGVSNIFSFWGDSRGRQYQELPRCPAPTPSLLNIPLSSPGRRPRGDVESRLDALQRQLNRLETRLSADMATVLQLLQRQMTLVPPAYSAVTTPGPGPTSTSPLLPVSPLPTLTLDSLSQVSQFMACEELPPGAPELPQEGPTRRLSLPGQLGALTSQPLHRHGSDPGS

As usually defined, the EC50 is the midpoint of the concentration-response curve. Usually viability stands for a read-out of living cells in per cent, often relative to untreated cells. By IC50 is commonly meant the concentration needed to halve the response being measured. For the compound `CCc1cc(-c2ccc(NS(=O)(=O)c3ccccc3Cl)c(F)c2)cc2cnc(N[C@H]3CC[C@H](N)CC3)nc12` [Compound 24, N-(4-(2-(((1r,4r)-4-aminocyclohexyl)amino)-8-ethylquinazolin-6-yl)-2-fluorophenyl)-2-chlorobenzene-sulfonamide], the concentration giving a half-maximal response (EC50) in the assay with IRE1a [1] was ≤ 5 nM. Also, in the assay on 293T cells, the viability at 0.185 µM was 75 to 100%, the viability at 0.5556 µM fell in the range of 75 to 100%, the viability at 1.667 µM fell in the range of 50 to 75% and the viability at 5 µM lay in the range of 50 to 75%. For the same compound, the IC50 on hERG channel was in the range of 1000 to 10000 nM. On IRE1a [2], the IC50 is ≤ 5 nM.
On to `CCc1cc(-c2ncc(NS(=O)(=O)c3ccccc3Cl)cc2F)cc2cnc(N[C@H]3CC[C@H](N)CC3)nc12` [Compound 52], for which the 50% effective concentration (EC50) with IRE1a [1] was ≤ 5 nM. For the same compound, in the assay with 293T cells, the viability at 0.185 µM fell in the range of 75 to 100%, the viability at 0.5556 µM was 75 to 100%, the viability at 1.667 µM lay within 75 to 100% and the viability at 5 µM lay in the range of 50 to 75%. Also, on IRE1a [2], the IC50 is ≤ 5 nM.
For the compound `CCc1cc(-c2cnc(NS(=O)(=O)c3ccccc3Cl)c(F)c2)cc2cnc(N[C@H]3CC[C@H](N)CC3)nc12` [Compound 55, N-(5-(2-(((1r,4r)-4-aminocyclohexyl)amino)-8-ethylquinazolin-6-yl)-3-fluoropyridin-2-yl)-2-chlorobenzene-sulfonamide], the EC50 with IRE1a [1] was ≤ 5 nM. In the assay with 293T cells, the viability at 0.185 µM is 75 to 100%, the viability at 0.5556 µM was 75 to 100%, the viability at 1.667 µM lay in the range of 75 to 100% and the viability at 5 µM fell in the range of 75 to 100%. Besides, on IRE1a [2], the concentration for half-maximal inhibition (IC50) is ≤ 5 nM.
In the case of `CCc1cc(-c2nnc(NS(=O)(=O)c3ccccc3Cl)cc2OC)cc2cnc(N[C@H]3CC[C@H](N)CC3)nc12` [Compound 65, N-(6-(2-(((1r,4r)-4-aminocyclohexyl)amino)-8-ethylquinazolin-6-yl)-5-methoxypyridazin-3-yl)-2-chlorobenzene-sulfonamide], in the assay with IRE1a [1], the half-maximal effective concentration (EC50) lay in the range of 5 to 50 nM. In the assay with 293T cells, the viability at 0.185 µM is 75 to 100%, the viability at 0.5556 µM fell in the range of 75 to 100%, the viability at 1.667 µM was in the range of 75 to 100% and the viability at 5 µM was in the range of 50 to 75%. Further, at IRE1a [2], the half-maximal inhibitory concentration (IC50) was ≤ 5 nM.
For the compound `CCc1cc(-c2nnc(NS(=O)(=O)c3ccccc3Cl)cc2C)cc2cnc(N[C@H]3CC[C@H](N)CC3)nc12` [Compound 67, N-(6-(2-(((1r,4r)-4-aminocyclohexyl)amino)-8-ethylquinazolin-6-yl)-5-methylpyridazin-3-yl)-2-chlorobenzene-sulfonamide], the concentration giving a half-maximal response (EC50) with IRE1a [1] lay in the range of 5 to 50 nM. Besides, in the assay on 293T cells, the viability at 0.185 µM lay in the range of 75 to 100%, the viability at 0.5556 µM was 75 to 100%, the viability at 1.667 µM fell in the range of 50 to 75% and the viability at 5 µM lay within 50 to 75%. For the same compound, the IC50 on IRE1a [2] was ≤ 5 nM.
Regarding `CCc1cc(-c2ccc(NS(=O)(=O)c3ccccc3Cl)c(F)c2)cc2cnc(N[C@H]3CC[C@H](N(C)C)CC3)nc12` [Compound 69, 2-chloro-N-(4-(2-(((1r,4r)-4-(dimethylamino)cyclohexyl)amino)-8-ethylquinazolin-6-yl)-2-fluorophenyl) benzene-sulfonamide], in the assay on IRE1a [1], the concentration for a half-maximal effect (EC50) is ≤ 5 nM. For the same compound, in the assay on 293T cells, the viability at 0.5556 µM was in the range of 75 to 100%, the viability at 1.667 µM is 50 to 75% and the viability at 5 µM lay in the range of 50 to 75%. Also, the IC50 at hERG channel was 10000 to 50000 nM. In addition, on IRE1a [2], the IC50 is ≤ 5 nM.
Turning to `CCc1cc(-c2ccc(NS(=O)(=O)c3ccccc3Cl)c(F)c2C)cc2cnc(N[C@H]3CC[C@H](N)CC3)nc12` [Compound 71, N-(4-(2-(((1r,4r)-4-aminocyclohexyl)amino)-8-ethylquinazolin-6-yl)-2-fluoro-3-methylphenyl)-2-chlorobenzene-sulfonamide], the EC50 in the assay with IRE1a [1] was ≤ 5 nM. For the same compound, in the assay on 293T cells, the viability at 0.185 µM fell in the range of 75 to 100%, the viability at 0.5556 µM lay within 75 to 100%, the viability at 1.667 µM was 50 to 75% and the viability at 5 µM fell in the range of 25 to 50%. Besides, the IC50 at IRE1a [2] was ≤ 5 nM.

These data come from patent publication US12071424B2, “IRE1 small molecule inhibitors” (Cornell University, priority 2017, dated 2024).
